Measurements reported in the supplement of paper PMC10307832.

Assays:
Assay in all cases: relative viability (nuclei count vs DMSO), 5 days (fraction); higher = more cells survive
Tipifarnib + Navitoclax = compound: Cn1cncc1[C@@](N)(c1ccc(Cl)cc1)c1ccc2c(c1)c(-c1cccc(Cl)c1)cc(=O)n2C [Tipifarnib] + CC1(C)CCC(c2ccc(Cl)cc2)=C(CN2CCN(c3ccc(C(=O)NS(=O)(=O)c4ccc(N[C@H](CCN5CCOCC5)CSc5ccccc5)c(S(=O)(=O)C(F)(F)F)c4)cc3)CC2)C1 [Navitoclax] (partner 0.5 µM)
How it was run: (§1)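 Values are medians from duplicate plates. Each reflects relative viability, defined as the nuclei count of treated wells over that of vehicle wells. Lung cancer cell lines in 1536-well plates were pin-tool dosed one day after seeding with one drug alone or with a fixed anchor-drug dose plus five library-drug doses (not always all listed) in √10 steps, then fixed, stained and imaged at 4× after 5 days.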

Tipifarnib + Luminespib = compound: Cn1cncc1[C@@](N)(c1ccc(Cl)cc1)c1ccc2c(c1)c(-c1cccc(Cl)c1)cc(=O)n2C [Tipifarnib] + CCNC(=O)c1noc(-c2cc(C(C)C)c(O)cc2O)c1-c1ccc(CN2CCOCC2)cc1 [Luminespib] (partner 0.01 µM)
How it was run: as §1

Tipifarnib + Foretinib = compound: Cn1cncc1[C@@](N)(c1ccc(Cl)cc1)c1ccc2c(c1)c(-c1cccc(Cl)c1)cc(=O)n2C [Tipifarnib] + COc1cc2c(Oc3ccc(NC(=O)C4(C(=O)Nc5ccc(F)cc5)CC4)cc3F)ccnc2cc1OCCCN1CCOCC1 [Foretinib] (partner 0.25 µM)
How it was run: as §1

Tipifarnib + Linsitinib = compound: Cn1cncc1[C@@](N)(c1ccc(Cl)cc1)c1ccc2c(c1)c(-c1cccc(Cl)c1)cc(=O)n2C [Tipifarnib] + C[C@]1(O)C[C@@H](c2nc(-c3ccc4ccc(-c5ccccc5)nc4c3)c3c(N)nccn32)C1 [Linsitinib] (partner 1 µM)
How it was run: as §1

| Cell Line | relative viability (Tipifarnib + Navitoclax; first compound 0.01 µM) | relative viability (Tipifarnib + Navitoclax; first compound 0.03162 µM) | relative viability (Tipifarnib + Navitoclax; first compound 0.1 µM) | relative viability (Tipifarnib + Navitoclax; first compound 0.3162 µM) | relative viability (Tipifarnib + Navitoclax; first compound 1 µM) | relative viability (Tipifarnib + Luminespib; first compound 0.01 µM) | relative viability (Tipifarnib + Luminespib; first compound 0.03162 µM) | relative viability (Tipifarnib + Luminespib; first compound 0.1 µM) | relative viability (Tipifarnib + Luminespib; first compound 0.3162 µM) | relative viability (Tipifarnib + Luminespib; first compound 1 µM) | relative viability (Tipifarnib + Foretinib; first compound 0.01 µM) | relative viability (Tipifarnib + Foretinib; first compound 0.03162 µM) | relative viability (Tipifarnib + Foretinib; first compound 0.1 µM) | relative viability (Tipifarnib + Foretinib; first compound 0.3162 µM) | relative viability (Tipifarnib + Foretinib; first compound 1 µM) | relative viability (Tipifarnib + Linsitinib; first compound 0.01 µM) | relative viability (Tipifarnib + Linsitinib; first compound 0.03162 µM) | relative viability (Tipifarnib + Linsitinib; first compound 0.1 µM) | relative viability (Tipifarnib + Linsitinib; first compound 0.3162 µM) | relative viability (Tipifarnib + Linsitinib; first compound 1 µM) |
| --- | --- | --- | --- | --- | --- | --- | --- | --- | --- | --- | --- | --- | --- | --- | --- | --- | --- | --- | --- | --- |
| NCI-H2405 | 1.01 | 0.86 | 0.961 | 0.8 | 0.537 | 0.71 | 0.584 | 0.525 | 0.606 | 0.527 | 1.06 | 1.03 | 1.03 | 0.993 | 0.923 | 0.952 | 0.885 | 0.845 | 0.821 | 0.79 |
| NCI-H3122 | 1.02 | 0.95 | 0.857 | 0.675 | 0.782 | 0.0874 | 0.0613 | 0.0958 | 0.0893 | 0.0812 | 0.957 | 0.796 | 0.744 | 0.693 | 0.544 | 1.02 | 0.835 | 0.784 | 0.663 | 0.726 |
| PC-3 [JPC-3] | 0.814 | 0.648 | 0.749 | 0.532 | 0.416 | 0.74 | 0.694 | 0.66 | 0.458 | 0.409 | 1.06 | 1.02 | 0.955 | 0.749 | 0.6 | 0.956 | 0.899 | 0.872 | 0.769 | 0.736 |
| PC-14 | 1.05 | 0.847 | 0.658 | 0.482 | 0.51 | 0.221 | 0.2 | 0.149 | 0.132 | 0.131 | 0.954 | 1.01 | 0.912 | 0.602 | 0.289 | 0.98 | 0.965 | 0.713 | 0.432 | 0.437 |
| RERF-LC-KJ | 1.14 | 0.931 | 0.61 | 0.467 | 0.46 | 1.2 | 0.924 | 1.07 | 0.605 | 0.654 | 0.917 | 0.965 | 0.799 | 0.773 | 0.393 | 0.918 | 0.909 | 0.874 | 0.629 | 0.651 |
| SK-LU-1 | 0.779 | 0.488 | 0.435 | 0.25 | 0.405 | 0.252 | 0.212 | 0.208 | 0.236 | 0.193 | 0.877 | 0.723 | 0.542 | 0.481 | 0.477 | 0.986 | 0.728 | 0.642 | 0.631 | 0.67 |
| SK-MES-1 | 1.3 | 1.11 | 0.866 | 0.785 | 0.655 | 0.679 | 0.606 | 0.675 | 0.373 | 0.348 | 0.916 | 0.869 | 0.905 | 0.681 | 0.542 | 1.08 | 0.917 | 0.985 | 0.792 | 0.809 |
| SW 1573 | 1.05 | 0.678 | 0.49 | 0.407 | 0.331 | 0.208 | 0.164 | 0.239 | 0.166 | 0.187 | 1.12 | 0.873 | 0.657 | 0.498 | 0.173 | 0.7 | 0.709 | 0.518 | 0.387 | 0.365 |
| UMC-11 | 0.263 | 0.211 | 0.235 | 0.191 | 0.194 | 0.99 | 0.845 | 0.711 | 0.665 | 0.621 | 0.856 | 0.725 | 0.612 | 0.616 | 0.578 | 0.86 | 0.632 | 0.563 | 0.523 | 0.577 |
